One experiment concerns the target T1, full-length HAQ STING (Homo sapiens, UniProt Q86WV6, G230A/H232R/R293Q/R71H).
T1 construct: AviTag (after GG linker) (C); HRV3C cleavage site (after GS linker) (C); HIS8 (C); made in house; host or cells: Trichoplusia ni (Hi-Five) insect cells infected with baculovirus (virus generated and amplified in Sf21 cells); used as a washed membrane preparation
In words: 3H-cGAMP filtration binding assay (HAQ STING). The note with it: competition with tritiated cGAMP, HAQ STING membrane. In a few lines: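 Hi-Five (T. ni) membranes overexpressing the STING variant (2.2 ug/ml working) preincubated with compound 60 min at RT in PBS, then [3H]cGAMP (8 nM working stock) added for 60 min at RT. Bound radioactivity captured on GF/B filters and counted by scintillation; EC50 from 4-parameter fit of control-normalized activity.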

For the next experiment, the target named is T2, full-length WT STING (Homo sapiens, UniProt Q86WV6, H232R).
T2 construct: AviTag (after gg linker) (C); HRV3C cleavage site (after gs linker) (C); HIS8 (C); made in house; host or cells: Trichoplusia ni (Hi-Five) insect cells infected with baculovirus (virus generated and amplified in Sf21 cells); used as a washed membrane preparation
The experiment in a line: 3H-cGAMP filtration binding assay (WT STING). The note with it: for EC50: competition with tritiated cGAMP, WT STING membrane; for inhibition at 20 µM: at 20,000 nM compound. In a few lines: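 EC50 values come from 4-parameter fits of remaining filter-bound tritium versus log concentration (10-point, 1:3 dilution). Insect-cell membranes carrying full-length WT STING were incubated 60 min at RT with compound and tritiated cGAMP (16 nM working stock) before filtration.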

The test system of experiment [1] is secretion of interferon-beta from THP1 cells. In words: IFN-β secretion in THP1 cell culture (5 h). The class given is cell-based. To be noted: Homo sapiens, THP-1, 5 h, 30 uM cGAMP = 100%; for activation at 30 µM: compound at 30 μM, read-out: % Effect at 30 μM relative to 2′3′-cGAMP; for activation at 3 µM: compound at 3 uM, read-out: % Effect relative to 2′3′-cGAMP (@ 3 uM). Summed up:
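IFN-β in supernatant measured by AlphaLISA after a 5 h, 37 °C incubation of THP1 cells with compound (10 concentrations, 30000 down to 1.5 nM, 0.3% DMSO) in low-serum RPMI. Values scaled between DMSO and 30 uM cGAMP controls; 4-parameter curve fit yields EC50.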

T1 sequence (Q86WV6 with tags, fused parts or gaps R71H/G230A/H232R/R293Q): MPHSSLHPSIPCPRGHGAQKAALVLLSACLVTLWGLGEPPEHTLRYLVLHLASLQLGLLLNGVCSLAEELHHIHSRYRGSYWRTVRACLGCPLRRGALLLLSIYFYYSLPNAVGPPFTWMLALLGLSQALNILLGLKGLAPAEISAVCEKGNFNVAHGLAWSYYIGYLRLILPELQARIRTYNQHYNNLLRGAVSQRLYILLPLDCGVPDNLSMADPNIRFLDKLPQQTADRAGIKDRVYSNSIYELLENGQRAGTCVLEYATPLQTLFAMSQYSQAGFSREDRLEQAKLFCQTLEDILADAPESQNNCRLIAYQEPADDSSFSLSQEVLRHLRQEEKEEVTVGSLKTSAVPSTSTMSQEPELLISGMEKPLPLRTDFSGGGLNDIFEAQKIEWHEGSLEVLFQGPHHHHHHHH
T2 sequence (Q86WV6 with tags, fused parts or gaps H232R): as the sequence (Q86WV6 with tags, fused parts or gaps R71H/G230A/H232R/R293Q) above, with H71R, A230G, Q293R counted along it

Consider `COc1cc2cc(C(=O)C[C@H](C)C(=O)O)sc2cc1OCCCCOc1cc2sc(C(=O)C[C@H](C)C(=O)O)cc2cc1OC` [Example 95, (2S,2′S)-4,4′-(6,6′-(butane-1.4-diylbis(oxy))bis(5-methoxybenzo[b]thiophene-6,2-diyl))bis(2-methyl-4-oxobutanoic acid)], for which the results for the concentration giving a half-maximal response (EC50) on full-length HAQ STING and at full-length WT STING were 237 nM and 813 nM, respectively. In experiment [1], the activation at 30 µM was 72%.
Take `COc1cc2sc(C(=O)C[C@H](C)C(=O)O)cc2cc1CCCOc1c(OC)cc2sc(CC[C@H](C)C(=O)O)cc2c1F` [Example 100, (S)-4-(5-(3-((2-((S)-3-carboxybutyl)-4-fluoro-6-methoxybenzo[b]thiophen-5-yl)oxy)propyl)-6-methoxybenzo[b]thiophen-2-yl)-2-methyl-4-oxobutanoic acid]: the concentration giving a half-maximal response (EC50) is 277 nM on full-length HAQ STING and 2240 nM on full-length WT STING. For the same molecule, the activation at 3 µM in experiment [1] amounted to 33%.
In the case of `COc1cc2sc(CC[C@H](C)C(=O)O)cc2c(F)c1OCCCOc1c(OC)cc2sc(C(=O)C[C@H](C)C(=O)O)cc2c1F` [Example 101, (S)-4-(5-(3-((2-((S)-3-carboxybutyl)-4-fluoro-6-methoxybenzo[b]thiophen-5-yl)oxy)propoxy)-4-fluoro-6-methoxybenzo[b]thiophen-2-yl)-2-methyl-4-oxobutanoic acid], the EC50 was 1 nM at full-length HAQ STING and 2 nM on full-length WT STING. In addition, the activation at 30 µM in experiment [1] was 85%.
For `COc1cc2sc(C(=O)C[C@H](C)C(=O)O)cc2cc1OCCCCCOc1cc2cc(C(=O)C[C@H](C)C(=O)O)sc2cc1OC` [Example 102, (2S,2′S)-4,4′-(5,5′-(pentane-1,5-diylbis(oxy))bis(6-methoxybenzo[b]thiophene-5,2-diyl))bis(2-methyl-4-oxobutanoic acid)], in that order: 15 nM, 213 nM and 69%.
In the same order, the values of `COc1cc2sc(C(=O)C[C@H](C)C(=O)O)cc2cc1OCCCCCOc1c(OC)cc2sc(C(=O)C[C@H](C)C(=O)O)cc2c1F` [Example 103, (S)-4-(5-((5-((2-((S)-3-carboxybutanoyl)-4-fluoro-6-methoxybenzo[b]thiophen-5-yl)oxy)pentyl)oxy)-6-methoxybenzo[b]thiophen-2-yl)-2-methyl-4-oxobutanoic acid] are 22 nM, 371 nM and 79%.
In the same order, the values of `COc1cc2sc(C(=O)C[C@H](C)C(=O)O)cc2cc1OCCCCCOc1cc2sc(C(=O)C[C@H](C)C(=O)O)cc2cc1OC` [Example 104, (S)-4-(5-((5-((2-((S)-3-carboxybutanoyl)-5-methoxybenzo[b]thiophen-6-yl)oxy)pentyl)oxy)-6-methoxybenzo [b]thiophen-2-yl)-2-methyl-4-oxobutanoic acid] are 467 nM, 8900 nM and 35%.
Consider `COc1cc2sc(C(=O)C[C@H](C)C(=O)O)cc2c(F)c1CCCOc1c(OC)cc2sc(CC[C@H](C)C(=O)O)cc2c1F` [Example 105, (S)-4-(5-(3-((2-((S)-3-carboxybutyl)-4-fluoro-6-methoxybenzo[b]thiophen-5-yl)oxy)propyl)-4-fluoro-6-methoxybenzo[b]thiophen-2-yl)-2-methyl-4-oxobutanoic acid], for which the EC50 on full-length HAQ STING stood at 39 nM; at full-length WT STING, 311 nM. Further, the activation at 30 µM in experiment [1] was determined as 130%.
In the same order, the values of `COc1cc2sc(C(=O)C[C@H](C)C(=O)O)cc2c(F)c1CCCOc1c(OC)cc2sc(C(=O)[C@@H]3CC3C(=O)O)cc2c1F` (stereo partly drawn) [Example 106, trans-2-(5-(3-(2-((S)-3-carboxybutanoyl)-4-fluoro-6-methoxybenzo[b]thiophen-5-yl)propoxy)-4-fluoro-6-methoxybenzo[b]thiophene-2-carbonyl)cyclopropane carboxylic acid] are 10 nM, 251 nM and 74%.
In the case of `COc1cc2sc(C(=O)C[C@H](C)C(=O)O)cc2c(F)c1CCCOc1c(OC)cc2sc(C(=O)[C@@H]3CCC3C(=O)O)cc2c1F` (stereo partly drawn) [Example 107, trans-2-(5-(3-(2-((S)-3-carboxybutanoyl)-4-fluoro-6-methoxybenzo[b]thiophen-5-yl)propoxy)-4-fluoro-6-methoxybenzo[b]thiophene-2-carbonyl)cyclobutane carboxylic acid], the figures for the EC50 on full-length HAQ STING and on full-length WT STING were 1 nM and 2 nM, respectively. In experiment [1], the activation at 30 µM worked out at 108%.
In the same order, the values of `COc1cc2sc(C(=O)C[C@@H](C)C(=O)O)cc2cc1CCCOc1c(OC)cc2sc(C(=O)C[C@@H](C)C(=O)O)cc2c1F` [Example 108, (R)-4-(5-(3-((2-((R)-3-carboxybutanoyl)-4-fluoro-6-methoxybenzo[b]thiophen-5-yl)oxy)propyl)-6-methoxybenzo[b]thiophen-2-yl)-2-methyl-4-oxobutanoic acid] are 35 nM, 244 nM and 86%.
For `COc1cc2sc(C(=O)C[C@H](C)C(=O)O)cc2cc1CCCOc1c(OC)cc2sc(C(=O)C[C@@H](C)C(=O)O)cc2c1F` [Example 109, (S)-4-(5-(3-((2-((R)-3-carboxybutanoyl)-4-fluoro-6-methoxybenzo[b]thiophen-5-yl)oxy)propyl)-6-methoxybenzo[b]thiophen-2-yl)-2-methyl-4-oxobutanoic acid], in that order: 10 nM, 39 nM and 96%.
On full-length HAQ STING, `COc1cc2sc(C(=O)C[C@H](C)C(=O)O)cc2cc1OCCCCCCOc1cc2cc(C(=O)C[C@H](C)C(=O)O)sc2cc1OC` [Example 110, (2S,2′S)-4,4′-(5,5′-(hexane-1,6-diylbis(oxy))bis(6-methoxybenzo[b]thiophene-5,2-diyl))bis(2-methyl-4-oxobutanoic acid)] registered an EC50 of 18600 nM. At full-length WT STING, this molecule had an inhibition at 20 µM of 15%. Further, the activation at 30 µM in experiment [1] turned out to be 6%.
At full-length HAQ STING, `COc1cc2sc(C(=O)C[C@H](C)C(=O)O)cc2cc1OCCCCCCOc1c(OC)cc2sc(C(=O)C[C@H](C)C(=O)O)cc2c1F` [Example 111, (S)-4-(5-((6-((2-((S)-3-carboxybutanoyl)-4-fluoro-6-methoxybenzo[b]thiophen-5-yl)oxy)hexyl)oxy)-6-methoxybenzo[b]thiophen-2-yl)-2-methyl-4-oxobutanoic acid] yielded an EC50 of 861 nM. Further, the inhibition at 20 µM at full-length WT STING came to 50%. Besides, the activation at 3 µM in experiment [1] came out at 45%.
Molecule `COc1cc2cc(C(=O)C[C@H](C)C(=O)O)sc2cc1OCCCCCCOc1cc2sc(C(=O)C[C@H](C)C(=O)O)cc2cc1OC` [Example 112, (2S,2′S)-4,4′-(6,6′-(hexane-1,6-diylbis(oxy))bis(5-methoxybenzo[b]thiophene-6,2-diyl))bis(2-methyl-4-oxobutanoic acid)] showed an EC50 at full-length HAQ STING of 15500 nM. On full-length WT STING, this molecule gave an inhibition at 20 µM of 11%. In experiment [1], the activation at 30 µM is 23%.
With `COc1cc2sc(C(=O)C[C@H](C)C(=O)O)cc2cc1CCCOc1c(OC)cc2sc(C(=O)[C@@H]3CCC3C(=O)O)cc2c1F` (stereo partly drawn) [Example 113, trans-2-(5-(3-(2-((S)-3-carboxybutanoyl)-6-methoxybenzo[b]thiophen-5-yl)propoxy)-4-fluoro-6-methoxybenzo[b]thiophene-2-carbonyl)cyclobutane carboxylic acid], the figures for the EC50 at full-length HAQ STING and at full-length WT STING were 2 nM and 23 nM, respectively. For the same molecule, the activation at 30 µM in experiment [1] is 93%.
On to `COc1cc2sc(C(=O)C[C@H](C)C(=O)O)cc2c(F)c1CCCOc1c(OC)cc2sc(CCC(C)(C)C(=O)O)cc2c1F` [Example 114, (S)-4-(5-(3-((2-(3-carboxy-3-methylbutyl)-4-fluoro-6-methoxybenzo[b]thiophen-5-yl)oxy)propyl)-4-fluoro-6-methoxybenzo[b]thiophen-2-yl)-2-methyl-4-oxobutanoic acid], for which the EC50 turned out to be 21 nM on full-length HAQ STING and 264 nM at full-length WT STING. Moreover, in experiment [1], the activation at 30 µM came to 57%.
In the same order, the values of `COc1cc2sc(CC[C@H](C)C(=O)O)cc2c(F)c1OCCCOc1c(OC)cc2sc(CC[C@H](C)C(=O)O)cc2c1F` [Example 116, (2S,2′S)-4,4′-(5,5′-(propane-1,3-diylbis(oxy))bis(4-fluoro-6-methoxybenzo[b]thiophene-5,2-diyl))bis(2-methylbutanoic acid)] are 623 nM, 4240 nM and 8%.
For `COc1cc2sc(C(=O)CCC(=O)O)cc2c(F)c1OCCCCCOc1c(OC)cc2sc(C(=O)CCC(=O)O)cc2c1F` [Example 117, 4,4′-(5,5′-(pentane-1,5-diylbis(oxy))bis(4-fluoro-6-methoxybenzo[b]thiophene-5,2-diyl))bis(4-oxobutanoic acid)], in that order: 340 nM, 2640 nM and 123%.

What is called EC50 is the concentration needed to bring the measured effect to its halfway point. Usually inhibition stands for the change of the read-out against control, counted positive when it falls. Low readings indicate a response near the control, high ones a response far below the control.

These data come from patent publication US10793557B2, “Sting agonist compounds” (Merck Sharp & Dohme Corp., priority 2018, dated 2020).
